Here are results for 8 molecules from PubChem BioAssay (NCI).

Several values for one entry are separate records, joined by “and”; a condition that tells them apart may be missing. Identical values can stand only once.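 Assay format: 96-well plates, 48-hour exposure. GI50 marks 50% less growth. Definition used: TGI = concentration required for complete inhibition of growth.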

What all share (assay): NCI anticancer screen, dose series, 48 h
Test [1] has as its system HOP-92 NSCLC.
In test [2] the test system is SR leukemia.
Test [3] has as its system RXF 393 renal.
Test [4] has as its system RPMI-8226 leukemia.
The test system of test [5] is HCT-15 colon.
For test [6], the system named is OVCAR-5 ovarian.
For test [7], the system named is HT29 colon.
Test [8] concerns 786-0 renal.
For test [9], the system named is PC-3 prostate.
For test [10], the system named is ACHN renal.

Turning to `C[C@@H]1CC[C@H]2C(CN(C)CC3=C(C(F)(F)F)O[C@@H]4O[C@@]5(C)CC[C@H]6[C@H](C)CC[C@@H]3[C@@]46OO5)=C(C(F)(F)F)O[C@@H]3O[C@@]4(C)CC[C@@H]1[C@]32OO4`, the GI50 in [1] is 11.4 µM; in [2], 81.9 µM; in test [3], 2.83 µM; in [4], 0.82 µM; in test [5], 0.506 µM; in test [6] it was 0.935 µM. Moreover, the GI50 in [7] was 2.76 µM; in test [8], 4.03 µM; in test [9], 0.231 µM; in test [10], 1.81 µM. The TGI in [1] is greater than 94.4 µM; in [2] it was greater than 100 µM; in test [3], greater than 100 µM; in [4], greater than 49.6 µM; in test [5], greater than 100 µM; in test [6], greater than 100 µM. The TGI in test [7] is greater than 100 µM; in test [8], 41.7 µM; in [9] it was greater than 100 µM; in test [10] it was 14.9 µM.
`Clc1cc(-c2csc(Cl)c2)cs1`: the TGI in test [1], in test [2], in test [3], in [4], in [5] and in test [6] was greater than 100 µM in each case. In addition, the TGI in test [7], in test [8], in [9] and in [10] was greater than 100 µM each time.
On to `COc1cc(C2CC(c3cc(Cl)c(C)cc3O)=NN2c2ccc(S(N)(=O)=O)cc2)cc(OC)c1OC` (configuration not stated), for which the GI50 was 2.14 µM in test [1]; 2.47 µM in [2]; 2.9 µM in test [3]; 2.66 µM in test [4]; 3.28 µM in [5]; 1.87 µM in test [6]. Also, the GI50 in test [7] is 1.92 µM; in [8], 2.21 µM; in [9] it was 2.27 µM; in test [10] it was 2.78 µM. In addition, the TGI in test [1] came to 6.99 µM; in [2], 7.35 µM; in [3], 6.02 µM; in test [4], 14.8 µM; in [5] it was 11.8 µM; in [6], 4.28 µM. The TGI in [7] worked out at 4.28 µM; in [8] it was 4.29 µM; in [9], 8.94 µM; in test [10], 8.33 µM.
With `CC(=O)O[C@H]1Cc2c([nH]c3ccccc23)[C@@H](c2ccc(Cl)cc2)N1C(=O)CCNC(C)(C)C`, the GI50 in test [1] is 1.1 µM; in test [2] it was 1.09 µM; in test [3], 2.52 µM; in test [4], 2.83 µM; in test [5], 4.05 µM; in [6], 4.24 µM. For the same molecule, the GI50 in test [7] is 1.59 µM; in [8], 3.64 µM; in [9], 3.48 µM; in test [10] it was 4.13 µM. Moreover, the TGI in test [1] is 5.61 µM; in test [2], 6.11 µM; in [3], 6.83 µM; in test [4], 13.6 µM; in test [5], 8.32 µM; in test [6], 8.54 µM. Besides, the TGI was determined as 5.57 µM in [7], 7.92 µM in test [8], 8.12 µM in test [9] and 8.29 µM in test [10].
On to `N#CSc1cc(-c2nc3ccccc3o2)ccc1N`, for which the GI50 in test [1] is 22.4 µM; in [2] it was 0.203 µM; in test [3], 0.965 µM; in test [4] it was 15.9 µM; in test [5], 23.2 µM; in test [6] it was 25.2 µM. The GI50 in test [7] was 37.7 µM; in [8] it was 33.4 µM; in test [9], 12.5 µM; in test [10], 19.2 µM. In addition, the TGI was 64.2 µM in test [1]; greater than 100 µM in test [2]; 26.3 µM in test [3]; 53 µM in [4]; greater than 100 µM in [5]; 76.6 µM in [6]. For the same molecule, the TGI was greater than 100 µM in test [7], 97.4 µM in test [8], 81.6 µM in test [9] and 58.5 µM in [10].
For `Nc1cc2ccncc2c2ccccc12`, the GI50 was 19.6 µM in test [1]; 8.56 µM in [2]; 10.8 µM in test [3]; 11.6 µM in test [4]; 11.8 µM in test [5]; 18.7 µM in [6]. Besides, the GI50 is 13.2 µM in test [7], 23.3 µM in [8], 16.2 µM in test [9] and 4.44 µM in [10]. Also, the TGI in [1] is 68.9 µM; in test [2], 47.9 µM; in test [3], 29 µM; in test [4], 63.5 µM; in test [5] it was greater than 100 µM; in test [6], 88.1 µM. Also, the TGI in test [7] is 43 µM; in test [8] it was greater than 100 µM; in test [9], greater than 100 µM; in [10], 58.5 µM.
Turning to `CN(C)CC1CCCCCCCCCCC1=O` (configuration not stated), the GI50 in test [1] is greater than 100 µM; in test [2], greater than 100 µM; in [5], greater than 100 µM; in test [6], greater than 100 µM; in test [7] it was > 10 µM and 98.4 µM; in test [8], greater than 100 µM. Moreover, the GI50 in test [9] and in [10] was greater than 100 µM each time. The TGI in test [1] was greater than 100 µM; in [2], greater than 100 µM; in [3] it was greater than 10 µM; in test [4], greater than 100 µM; in test [5], greater than 100 µM; in test [6] it was greater than 100 µM. The TGI in test [7], in test [8], in [9] and in test [10] was greater than 100 µM throughout.
For the molecule `COc1ccc(C2C3=C(COC3=O)N(CCO)c3cc4c(cc32)CCC4)cc1OC` (configuration not stated), the GI50 in test [1] was greater than 50 µM; in test [2], 0.253 µM; in test [3] it was 0.207 µM; in test [4] it was 2.64 µM; in [5], 1.65 µM; in test [6], 3.59 µM. The GI50 was 0.62 µM in test [7], 5.56 µM in test [8], 0.524 µM in test [9] and 4.32 µM in [10]. Besides, the TGI in test [1] was greater than 50 µM; in [2], greater than 50 µM; in [4], greater than 50 µM; in [5], greater than 50 µM; in [6], greater than 50 µM; in [7], greater than 10.3 µM. The TGI in [8], in test [9] and in test [10] was greater than 50 µM throughout.
